Paper PMC11783601, “Analogue-Sensitive Inhibition of Histone Demethylases Uncovers Member-Specific Function in Ribosomal Protein Synthesis” (Journal of the American Chemical Society, 2025)

What was measured:
[1] = target: T1, asKDM4A (HA-tagged F185A) in HEK293T cells (Homo sapiens, UniProt O75164, F185A); assay: Time-dependent treatment and withdrawal of inhibitor, fixed cell imaging of H3K9me3 and BrdU; format: cell-based
T1 construct: we generated the F185A mutation in full-length KDM4A carrying all of the functional domains; host or cells: HEK293T
T1 sequence (O75164 1-1064 F185A): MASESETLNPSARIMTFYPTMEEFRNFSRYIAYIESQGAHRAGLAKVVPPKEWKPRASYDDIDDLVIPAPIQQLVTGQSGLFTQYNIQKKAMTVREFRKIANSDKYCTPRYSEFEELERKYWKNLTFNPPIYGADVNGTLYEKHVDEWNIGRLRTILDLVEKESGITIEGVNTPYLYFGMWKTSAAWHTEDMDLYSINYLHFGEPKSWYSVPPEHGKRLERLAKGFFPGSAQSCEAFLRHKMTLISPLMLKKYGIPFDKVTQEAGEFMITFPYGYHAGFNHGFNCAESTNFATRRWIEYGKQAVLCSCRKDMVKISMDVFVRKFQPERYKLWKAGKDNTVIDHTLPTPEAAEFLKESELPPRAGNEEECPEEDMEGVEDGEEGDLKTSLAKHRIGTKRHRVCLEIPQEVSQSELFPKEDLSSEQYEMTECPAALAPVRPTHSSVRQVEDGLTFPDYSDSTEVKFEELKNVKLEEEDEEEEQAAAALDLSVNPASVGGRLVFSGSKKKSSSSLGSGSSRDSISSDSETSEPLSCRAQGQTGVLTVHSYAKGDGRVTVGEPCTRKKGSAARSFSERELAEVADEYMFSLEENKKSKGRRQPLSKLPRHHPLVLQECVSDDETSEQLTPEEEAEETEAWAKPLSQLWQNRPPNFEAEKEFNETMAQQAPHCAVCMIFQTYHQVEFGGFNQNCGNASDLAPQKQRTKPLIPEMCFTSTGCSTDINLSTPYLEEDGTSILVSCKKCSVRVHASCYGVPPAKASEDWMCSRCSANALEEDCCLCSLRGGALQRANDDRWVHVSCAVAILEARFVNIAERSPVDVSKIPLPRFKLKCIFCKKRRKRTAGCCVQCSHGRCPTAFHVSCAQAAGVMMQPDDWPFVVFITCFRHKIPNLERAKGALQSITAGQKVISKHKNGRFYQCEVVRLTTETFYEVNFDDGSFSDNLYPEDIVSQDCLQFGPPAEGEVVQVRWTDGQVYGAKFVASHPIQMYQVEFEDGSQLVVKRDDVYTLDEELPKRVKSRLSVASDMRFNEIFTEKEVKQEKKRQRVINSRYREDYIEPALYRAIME
Procedure: We exploited the reversible mode of action of the allele-specific inhibitor to gain further insights into the temporal regulation of rRNA expression by histone demethylation. We reasoned that withdrawal of the reversible inhibitor from the cell-culture medium would restore the activity of asKDM4A in a temporally defined manner (Figure 8A). HEK293T cells expressing the F185A variant carrying an HA tag were treated with 6B and fixed at various time points. H3K9me3 levels were quantified in HA-positive cells to ensure that only cells with asKDM4A were considered for analysis. Within 3 h of compound treatment, a robust level of H3K9me3 ensued (Figure 8B). Subsequently, the same cells were allowed to grow in inhibitor-free media and examined for histone demethylation by fixed cell imaging.
To investigate if the restoration of H3K9me3 demethylation is directly linked to rRNA activation, cells overexpressing asKDM4A were first treated with 6B for 3 h followed by compound removal and brief exposure to 5FU before being fixed at different time points for immunofluorescence imaging (Figure 8A,C). […] We recorded a steady recovery of BrdU signal, reaching its maximum within 4–5 h postwithdrawal (equivalent to no 6B treatment) (Figure 8C), consistent with reactivation of asKDM4A as observed above. A relatively sluggish 5FU incorporation into rRNA (Figure 8C), compared to the rapid histone demethylation (Figure 8B), is likely due to the time required to assemble active transcriptional machinery at the rRNA promoters following the removal of the silencing H3K9me3 mark. Achieving such precise temporal control of protein function would be challenging using genetic tools. Collectively, employing the mutant and cognate inhibitor pair, we mapped a highly dynamic signaling pathway linking KDM4A-mediated locus-specific histone demethylation with upregulation of rRNA expression to modulate downstream processes such as ribosomal assembly and protein synthesis. […]
19. Fixed cell immunofluorescence staining
Cells were grown on poly-D-lysine (Gibco A3890401) treated glass coverslips (ThermoScientific 12-545-81P) overnight and transfected the next day with 300 ng KDM4A WT/F185A using […] of lipofectamine 2000 (Invitrogen 11668019). The cells were incubated overnight and treated with indicated inhibitor at varying time points. When probing rRNA transcription, cells were incubated with 2 mM 5-Fluorouridine (Sigma F5130) for 15 minutes. Cells were washed three times with phosphate buffered saline (PBS) at pH 7.6 (Corning 21040CV), fixed with 2% paraformaldehyde in PBS (ThermoFisher AAJ19943K2) for 15 minutes at room temperature, washed with PBS three times, and permeabilized with 0.1% tritonX (Fisher BP151-100) in PBS for 15 minutes. Next, coverslips were blocked with 2% Bovine Serum Albumin (BSA Fisher BP1600-100) in PBS for 1 hour at room temperature, coverslips were incubated with primary antibody diluted in 0.5% BSA PBS (anti-H3K9me3: Cell Signaling Technology cat: 13969S host:rabbit 1:1000; anti-HA: Cell Signaling Technology host:mouse, cat: 2367S or host:rabbit, cat: […]
hour at room temperature, then incubated with secondary antibodies diluted in 0.5% BSA PBS (anti-mouse—488: Invitrogen host: goat, cat: A-11001 or anti-rabbit—cy3: Invitrogen host: goat, […]
cat: A10520, both dilutions 1:1000), between each step coverslips were washed five times with 0.5% BSA PBS. The nuclei were stained with Hoechst stain 0.01 mg/mL in H2O (Sigma B2883-25MG) for 30 seconds, washed with PBS and finally adhered to a slide with gelvatol. The cells were imaged at University of Pittsburgh Center for Biological Imaging on an Olympus Fluoview […]
20. Quantification of fixed-cell imaging data
TIF images obtained from confocal microscopy experiments were quantified in ImageJ. Images were converted to 8-bit images and then thresholded to remove background signal. All images within the same experiment used the same threshold values. For concentration dependent imaging […]

KDM8 (JMJD5) = target: T2, KDM8 (JMJD5) (Homo sapiens, UniProt Q8N371); assay: MALDI-TOF assay for JMJD5 arginine hydroxylation of peptide; format: biochemical; conditions: peptide substrate
T2 construct: we recombinantly expressed the catalytic domains of 12 wild type dioxygenases; made in house
T2 sequence (Q8N371 271-416 limits assumed): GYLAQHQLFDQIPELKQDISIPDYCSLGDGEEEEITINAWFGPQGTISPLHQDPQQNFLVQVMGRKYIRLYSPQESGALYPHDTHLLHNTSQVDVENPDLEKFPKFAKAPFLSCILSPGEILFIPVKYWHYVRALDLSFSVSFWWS

[2] = HEK293T cells expressing KDM4A-F185A, 6B for 3 h then withdrawal

time of compound treatment until a robust level of H3K9me3 ensued ([1]; HA-positive HEK293T cells expressing F185A)	5FU incorporation after compound withdrawal [1, 2]	H3K9me3 after compound withdrawal [1, 2]	time postwithdrawal until BrdU signal reached its maximum ([1]; after 3 h 6B treatment and removal, equivalent to no 6B treatment)	BrdU signal (5FU incorporation) ([1]; cells overexpressing asKDM4A treated with 6B for 3 h)	time after compound removal until asKDM4A regained its demethylase activity ([1]; inhibitor-free media, activity increased for up to 3 h)	Structure (SMILES)	inhibition of JMJD5 (KDM8 (JMJD5))
up to 3 h	gradual increase in 5FU incorporation	rapid H3K9me3 demethylation	4 to 5 h	significant decrease in BrdU signal	≤ 1 h	CC(C)CC(NC(=O)C(=O)OCc1cccc(C(F)(F)F)c1)C(=O)O [6B, L-Leu TFMB-ester NOG]	
						CC(C)CC(NC(=O)C(=O)O)C(=O)O (stereo not shown) [compound 6, N-oxalyl leucine]	No inhibition
